In patent US20200397764A1, “VAP-1 INHIBITORS FOR TREATING PAIN” (BENEVOLENTAI CAMBRIDGE LIMITED, priority 2015, published 2020):

Columns and labels:
[1] = test system: CFA induced hypersensitivity; assay: CFA induced hypersensitivity in rat, weight bearing (incapacitance tester); type: in vivo; settings: for inhibition of the hypersensitivity response (weight bearing) / reversal of CFA induced hypersensitivity (weight bearing): rat
Experimental: (§1) Assessment of the anti-hyperalgesic properties of (3S)-tetrahydrofuran-3-yl (4S)-4-isopropyl-1,4,6,7-tetrahydro-5H-imidazo[4,5-c]pyridine-5-carboxylate mesylate salt was determined through measurement of weight bearing following CFA induced hypersensitivity. Naive rats distribute their body weight equally between the two hind paws. However, when the injected (left) hind paw is painful, the weight is re-distributed so that less weight is put on the affected paw (decrease in weight bearing on injured paw). Weight bearing through each hind limb was measured using a rat incapacitance tester (Linton Instruments, UK). Rats were placed in the incapacitance tester with the hind paws on separate sensors and the average force exerted by both hind limbs was recorded over 4 seconds. The injection of CFA also induces an oedema that can be assessed by paw volume; this is measured using a plethysmometer. The rat's hind paw is placed into the cylinder containing a solution and the volume of displaced liquid determines the paw volume.
Naive male, Sprague Dawley rats were acclimatised with food and water available ad libitum. Habituation to the incapacitance tester was performed. Baseline weight bearing and paw volume recordings were taken prior to induction of insult. Inflammatory hypersensitivity was induced by intraplantar injection of CFA (100μl of 1 mg/ml solution) into the left hind paw. A pre-treatment weight bearing and paw volume measurement was taken to assess hypersensitivity 23 hours post-CFA. Animals were then ranked and randomised according to CFA window in a Latin square design. […] (dosed in water at 2 mL/Kg, pH ˜5-6), alongside vehicle and reference group (indomethacin), n=9-10 per group. Weight bearing was assessed in all groups 1, 2 and 4 hours post compound administration. Paw volume was assessed 4 hours post compound administration. Data was analysed by comparing treatment groups to control group at each time point. Weight bearing (g) readings were taken for both right and left hind paws and the difference calculated. Data is expressed as % reversal of the hypersensitivity to pain, (post dose reading—pre dose reading)/(naïve reading—pre dose reading)×100, where naive weight bearing difference—pre dose weight bearing difference is defined as the CFA window to be reversed Statistical analysis was conducted by means of repeated measures ANOVA followed by Planned comparison test using InVivoStat (invivostat.co.uk), (p<0.05 considered significant).
as §1, with “of (S)-Carbidopa” for “of (3S)-tetrahydrofuran-3-yl (4S)-4-isopropyl-1,4,6,7-tetrahydro-5H-imidazo[4,5-c]pyridine-5-carboxylate mesylate salt”, “the Incapacitance” for “the incapacitance”
Naive male, Sprague Dawley rats were acclimatised with food and water available ad libitum. Habituation to the incapacitance tester was performed. Baseline weight bearing and paw volume recordings were taken prior to induction of insult. Inflammatory hypersensitivity was induced by intraplantar injection of CFA (100 μl of 1 mg/ml solution) into the left hind paw.

[2] = test system: CCI induced neuropathic pain; assay: Chronic Constriction Injury (CCI) model of neuropathic pain, mechanical allodynia (von-Frey); type: in vivo, rat
Excerpt: The Chronic Constriction Injury (CCI) model of neuropathic pain involves unilateral loose ligation of four ligatures around the left sciatic nerve at mid-thigh level spaced 1 mm apart. This procedure results in the development of hyperalgesia, allodynia and spontaneous pain (ectopic discharges) which can be measured using mechanical and thermal behavioural assessments. As such, this model is believed to mimic some of the symptoms and aetiology of neuropathic pain observed in the clInic (Bennett G J and Xie Y K., 1988; Field et al., 1999).
Naive male Sprague Dawley rats weighing 200-250 g were acclimatised to the procedure room in their home cages, with food and water available ad libitum. All animals underwent behavioural testing of mechanical allodynia prior to surgery in order to determine the baseline withdrawal thresholds. The average of the last two (out of three) baseline paw-withdrawal thresholds to stimulation with von-Frey hairs was taken as the baseline.
Under Isoflurane anaesthesia mixed with oxygen […] the left hind leg was shaved mid-thigh level and an incision made through the skin using a scalpel. The biceps femoris muscle layer was dissected by making an initial incision using a pair of sharp scissors, which was then widened using a pair of blunt scissors. The common sciatic nerve was exposed using a pair of forceps and 4 loose ligatures of chromic gut (SMI) were tied around the sciatic nerve with 1 mm spacing between each. The nerve was then returned below the muscle layer and the wound closed using absorbable sutures (Vicryl).
Behavioural testing started 19 days post-surgery with mechanical readings taken on day 19, and day 22. […]
On day 23, animals were treated orally with either Vehicle (30% aqueous hydroxypropyl-beta-cyclodextrin), 4-{5-[3-(4-Fluorophenyl)-3H-imidazo[4,5-c]pyridin-2-yl]pyridin-2-yl}morpholine 15, 50 and 150 mg/kg (5 mL/kg dose volume), or Pregabalin 30 mg/kg (2 mL/kg dose volume in water). Paw withdrawal thresholds (PWT) from each of the animals (mechanical von-Frey, mvF) were evaluated at 1 and 3 hours post dosing.
Static mechanical (tactile) allodynia: Measurement of withdrawal threshold was achieved using calibrated (force; g) von-Frey monofilaments (Touch-Test Sensory Evaluator; Scientific Marketing Associates) applied to the plantar surface of the hindpaw. Withdrawal threshold was determined by increasing and decreasing stimulus intensity, and estimated using the Dixon's up-down method (Dixon, 1980; Chaplan et al., 1994). […]
Mechanical allodynia (von Frey) data were analysed using two-way repeated measures ANOVA with ‘treatment’ as a between subjects effect and ‘day’ as a within subjects effect. […]

CFA induced oedema = CFA induced oedema in rat, paw volume (plethysmometer); type: in vivo
Experimental: as §1, with “The rat's hind paw is placed into the cylinder containing a solution and the volume of displaced liquid determines the paw volume.” left out
Naive male, Sprague Dawley rats were acclimatised with food and water available ad libitum. […] Weight bearing was assessed in all groups 1, 2 and 4 hours post compound administration. […] Data was analysed by comparing treatment groups to control group at each time point. Weight bearing (g) readings were taken for both right and left hind paws and the difference calculated. […]
Data Is expressed as % reversal of the hypersensitivity to pain. Paw Volume (mL) readings were taken for the left hind paws. […]

[3] = oral 10 mg/kg, 1 and 4 hours post administration
[4] = oral 1, 3 and 10 mg/kg, 24 hours post CFA, 1 and 4 hours post treatment

## CS(=O)(=O)N1CCN(c2ccc(-c3nc4ccncc4n3-c3ccc(F)cc3)cn2)CC1 [1-{5-[3-(4-Fluorophenyl)-3H-imidazo[4,5-c]pyridin-2-yl]pyridin-2-yl}-4 methanesulfonylpiperazine]
[1]; oral 3 mg/kg, 1 and 4 hours post administration
  inhibition of the hypersensitivity response (weight bearing): significant reduction at 4 hours post administration
[1]; [3]
  inhibition of the hypersensitivity response (weight bearing): significantly inhibiting the hyperactivity response at both 1 and 4 hours post administration
[1]; [4]
  inhibition of the hypersensitivity response (weight bearing): dose-dependently inhibited the hypersensitivity response

## Fc1ccc(-n2c(-c3ccc(N4CCOCC4)nc3)nc3ccncc32)cc1 [4-{5-[3-(4-Fluorophenyl)-3H-imidazo[4,5-c]pyridin-2-yl]pyridin-2-yl}morpholine]
[2]; rat CCI, 50 mg/kg p.o., vs the vehicle group
  withdrawal threshold (von-Frey mechanical allodynia): reaching statistical significance at 3 h
[2]; rat CCI, 150 mg/kg p.o., vs the vehicle group
  withdrawal threshold (von-Frey mechanical allodynia): reaching statistical significance vs the vehicle group at 1 h and 3 h
[2]; rat CCI, 15, 50 and 150 mg/kg p.o., 1 and 3 hours post dosing, FIG. 9
  withdrawal threshold (von-Frey mechanical allodynia): increased withdrawal threshold in a dose and temporally dependent fashion

## CC(C)[C@H]1c2nc[nH]c2CCN1C(=O)O[C@H]1CCOC1.CS(=O)(=O)O [(3S) Tetrahydrofuran-3-yl (4S)-4-isopropyl-1,4,6,7-tetrahydro-5H-imidazo[4,5-c]pyridine-5-carboxylate mesylate salt]
[1]; 150 mg/kg p.o., 1, 2 and 4 hours post dose
  reversal of CFA induced hypersensitivity (weight bearing): no significant reversal of hypersensitivity at any time point
[1]; 250 mg/kg p.o., 1, 2 and 4 hours post dose
  reversal of CFA induced hypersensitivity (weight bearing): significant reversal at 4 hours
[1]; 500 mg/kg p.o., 1, 2 and 4 hours post dose
  reversal of CFA induced hypersensitivity (weight bearing): effective at all time points with maximum effect seen at 4 hours post dose

## CC(C)[C@H]1c2nc[nH]c2CCN1C(=O)O[C@H]1CCOC1 [(3S)-Tetrahydrofuran-3-yl (4S)-4-isopropyl-1,4,6,7-tetrahydro-5H-imidazo[4,5-c]pyridine-5-carboxylate]
[1]; rat, 150, 250 and 500 mg/kg p.o., compared with indomethacin 10 mg/kg, FIG. 1
  efficacy in CFA hyperalgesia model (reversal of hypersensitivity): effective in a dose-dependent manner, and comparably in efficacy to the gold standard benchmark indomethacin

## CC(C)[C@H]1c2nc[nH]c2CCN1C(=O)O[C@H]1CCOC1.CS(=O)(=O)O [(3S)-tetrahydrofuran-3-yl (4S)-4-isopropyl-1,4,6,7-tetrahydro-5Himidazo[4,5-c]pyridine-5-carboxylate mesylate salt]
CFA induced oedema; rat, 150, 250 and 500 mg/kg p.o., 4 hours post compound administration
  effect on paw volume: No effect

## C[C@@](Cc1ccc(O)c(O)c1)(NN)C(=O)O [(S)-Carbidopa, reference compound]
[1]; Part B, 3-100 mg/kg alone, 1 and 3 hours post treatment, FIG. 4
  inhibition of the hypersensitivity response (weight bearing): dose-dependently inhibited the hypersensitivity response
CFA induced oedema; rat, Part B, 3-100 mg/kg, 3 hours post treatment, FIG. 5
  effect on oedema (paw volume): no effect on oedema

## CC(=O)N1CCN(c2ccc(-c3nc4ccncc4n3-c3ccc(F)cc3)cn2)CC1 [Compound 2, 1-(4-{5-[3-(4-Fluorophenyl)-3H-imidazo[4,5-c]pyridin-2-yl]pyridin-2-yl}piperazin-1-yl)ethan-1-one]
[1]; [3]
  inhibition of the hypersensitivity response (weight bearing): significantly inhibiting the hyperactivity response at both 1 and 4 hours post administration
[1]; [4]
  inhibition of the hypersensitivity response (weight bearing): dose-dependently inhibited the hypersensitivity response

## C[C@]12C=CC(=O)C=C1CC[C@@H]1[C@@H]2[C@@H](O)C[C@@]2(C)[C@H]1CC[C@]2(O)C(=O)CO [Prednisolone, reference compound]
[1]; Part A, 0.3-10 mg/kg alone, 1 and 3 hours post treatment, FIG. 3
  inhibition of the hypersensitivity response (weight bearing): dose-dependently inhibited the hypersensitivity response

## CC(C)C[C@H](CN)CC(=O)O [Pregabalin, reference compound]
[2]; rat CCI, 30 mg/kg p.o., day 23 post-surgery, reference
  withdrawal threshold (von-Frey mechanical allodynia): increased the withdrawal threshold to a degree that was comparable with those animals that had undergone sham surgery

## COc1ccc2c(c1)c(CC(=O)O)c(C)n2C(=O)c1ccc(Cl)cc1 [indomethacin, reference compound]
[1]; 10 mg/kg, 24 hours post CFA, reference
  reversal of CFA induced hypersensitivity (weight bearing): marked reversal of the hypersensitivity
